We go through 37 compounds from ChEMBL document CHEMBL1201862, “PubChem BioAssay data set” (2004).

A short description of assay [1]: inhibitors of firefly luciferase expression or activity, dose response, H4 neuroglioma cells, luminescence (AID 1990). Type of assay: functional, cell-based.
A short description of assay [2]: Luminescence Cell-Based Dose Response HTS to Identify Inhibitors of 5'UTR Stem-Loop Driven Prion Protein mRNA Translation in H4 Neuroglioblastoma Cells. [Related pubchem assays: 1827 (Project Summary), 1813 (Primary HTS)]. It is filed as functional.
Assay [3] in a line: inhibitors of SNCA 5'UTR-driven reporter translation, confirmation, H4 neuroglioma cells, luminescence (AID 1988). It is filed as functional, cell-based.
Another assay has as its target Cytochrome P450 2D6 (Homo sapiens, UniProt P10635).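 Also: CYP2D6 member of a cytochrome P450 panel assay.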
The target of the next assay is Cytochrome P450 2C9 (Homo sapiens, UniProt P11712).
Assay [4] addresses T1, Polyadenylate-binding protein 1 (Homo sapiens, UniProt P11940). As to the kind of experiment: PABP1 MLLE–PAM2 interaction inhibitors, dose response, miRNA deadenylation inhibitor project, biochemical, fluorescence polarization, Cy5-PAM2 peptide, secondary (AID 602260). The conditions noted are these: read-out: IC50_Mean. Type of assay: functional. For orientation: In fluorescence polarisation assays a small probe gives low polarisation when free and higher when bound to something large.

Assay [5] deals with T1, Polyadenylate-binding protein 1. As to the kind of experiment: PABP1 MLLE–PAM2 binding inhibitor potency, dose response, biochemical, fluorescence polarization, FITC-PAM2 peptide (AID 602259). As to conditions: read-out: IC50_Mean. It is filed as functional.
Assay [6] addresses T2, RNA-binding protein pos-1 (Caenorhabditis elegans, UniProt G5EF15).
T2 sequence (G5EF15 whole entry): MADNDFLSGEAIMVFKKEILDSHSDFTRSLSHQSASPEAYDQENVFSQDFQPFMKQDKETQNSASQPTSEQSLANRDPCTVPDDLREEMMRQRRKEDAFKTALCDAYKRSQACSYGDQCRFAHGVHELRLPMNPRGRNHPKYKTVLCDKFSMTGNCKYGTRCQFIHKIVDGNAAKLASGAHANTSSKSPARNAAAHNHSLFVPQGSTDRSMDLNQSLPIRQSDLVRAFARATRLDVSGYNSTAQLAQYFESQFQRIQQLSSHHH
Description: inhibitors of POS-1/mex-3 RNA binding, dose response, biochemical, fluorescence polarization (AID 1964).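 Also: purified POS-1 fused to maltose binding protein made in E. coli; potency of compounds blocking POS-1 binding to fluorescent RNA.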

Assay [7] deals with T3, Zinc finger protein mex-5 (Caenorhabditis elegans, UniProt Q9XUB2).
T3 sequence (Q9XUB2 whole entry): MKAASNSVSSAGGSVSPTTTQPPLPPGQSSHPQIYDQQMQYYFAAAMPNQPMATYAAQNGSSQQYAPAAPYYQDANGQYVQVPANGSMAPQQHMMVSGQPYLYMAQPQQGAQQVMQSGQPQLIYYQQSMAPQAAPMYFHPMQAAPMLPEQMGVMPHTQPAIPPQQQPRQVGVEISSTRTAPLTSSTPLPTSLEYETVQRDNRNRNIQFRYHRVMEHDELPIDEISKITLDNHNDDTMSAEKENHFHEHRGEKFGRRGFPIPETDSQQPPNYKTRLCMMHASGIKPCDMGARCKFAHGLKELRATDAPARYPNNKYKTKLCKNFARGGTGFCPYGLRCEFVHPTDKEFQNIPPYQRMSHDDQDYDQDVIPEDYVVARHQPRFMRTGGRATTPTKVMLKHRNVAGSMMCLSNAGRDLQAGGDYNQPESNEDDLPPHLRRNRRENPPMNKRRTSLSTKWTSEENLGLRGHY
Description: MEX-5/TCR-2 RNA interaction inhibitors, dose response, biochemical, C. elegans, fluorescence polarization (AID 1960).

Another assay has as its target T4, Protein skinhead-1 (Caenorhabditis elegans, UniProt P34707).
T4 sequence (P34707 whole entry): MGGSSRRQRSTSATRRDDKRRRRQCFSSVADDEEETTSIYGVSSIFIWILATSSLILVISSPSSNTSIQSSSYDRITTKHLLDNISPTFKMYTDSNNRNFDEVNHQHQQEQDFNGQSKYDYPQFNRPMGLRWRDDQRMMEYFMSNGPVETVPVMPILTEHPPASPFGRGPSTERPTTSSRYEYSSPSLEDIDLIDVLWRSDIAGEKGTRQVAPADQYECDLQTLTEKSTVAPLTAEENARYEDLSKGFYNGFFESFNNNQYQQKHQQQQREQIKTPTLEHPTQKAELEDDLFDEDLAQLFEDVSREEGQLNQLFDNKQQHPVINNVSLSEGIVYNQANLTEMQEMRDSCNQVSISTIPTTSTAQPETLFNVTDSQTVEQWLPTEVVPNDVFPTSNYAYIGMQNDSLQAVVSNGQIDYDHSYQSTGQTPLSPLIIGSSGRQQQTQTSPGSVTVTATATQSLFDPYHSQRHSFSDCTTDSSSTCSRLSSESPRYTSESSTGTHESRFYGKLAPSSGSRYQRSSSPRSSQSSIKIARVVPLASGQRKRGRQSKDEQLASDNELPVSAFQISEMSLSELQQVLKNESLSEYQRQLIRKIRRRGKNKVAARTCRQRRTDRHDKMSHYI
It is filed as functional.

The next assay concerns the target Cytochrome P450 3A4 (Homo sapiens, UniProt P08684).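 Also: CYP3A4 tested as one member of a cytochrome P450 panel screen.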
A further assay deals with T5, Cytochrome P450 1A2 (Homo sapiens, UniProt P05177).
T5 sequence (P05177 whole entry): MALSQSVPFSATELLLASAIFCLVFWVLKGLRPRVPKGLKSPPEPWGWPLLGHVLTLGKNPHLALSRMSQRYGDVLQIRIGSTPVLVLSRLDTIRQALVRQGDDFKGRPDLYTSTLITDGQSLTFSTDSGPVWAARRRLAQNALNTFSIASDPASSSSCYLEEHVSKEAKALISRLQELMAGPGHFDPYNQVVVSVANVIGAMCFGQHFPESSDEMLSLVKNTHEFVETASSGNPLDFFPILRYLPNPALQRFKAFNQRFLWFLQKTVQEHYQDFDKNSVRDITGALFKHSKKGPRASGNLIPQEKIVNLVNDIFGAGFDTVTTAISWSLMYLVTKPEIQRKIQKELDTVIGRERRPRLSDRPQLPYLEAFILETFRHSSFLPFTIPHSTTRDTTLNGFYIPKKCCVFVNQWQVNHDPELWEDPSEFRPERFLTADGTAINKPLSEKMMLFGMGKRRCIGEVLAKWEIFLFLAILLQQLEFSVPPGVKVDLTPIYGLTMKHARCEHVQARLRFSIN

Assay [8] in a line: HEp-2 cell cytotoxicity, dose response, cytotoxicity control for RSV inhibitor project, HTS (AID 2410). Type of assay: functional. As to conditions: human respiratory syncytial virus.
A further assay addresses Cytochrome P450 2C19 (Homo sapiens, UniProt P33261). As to the kind of experiment: Cytochrome panel assay with activity outcomes. Panel member name: p450-cyp2c19 Compounds with AC50 equal or less than 10 uM are considered active. It is filed as functional. As to conditions: read-out: AC50.

The structures appear in SMILES notation. Active and inactive are the calls of the source. Where only a bound is given, the exact number is not on record here.

Chain of Cytochrome P450 2D6 (P10635 whole entry): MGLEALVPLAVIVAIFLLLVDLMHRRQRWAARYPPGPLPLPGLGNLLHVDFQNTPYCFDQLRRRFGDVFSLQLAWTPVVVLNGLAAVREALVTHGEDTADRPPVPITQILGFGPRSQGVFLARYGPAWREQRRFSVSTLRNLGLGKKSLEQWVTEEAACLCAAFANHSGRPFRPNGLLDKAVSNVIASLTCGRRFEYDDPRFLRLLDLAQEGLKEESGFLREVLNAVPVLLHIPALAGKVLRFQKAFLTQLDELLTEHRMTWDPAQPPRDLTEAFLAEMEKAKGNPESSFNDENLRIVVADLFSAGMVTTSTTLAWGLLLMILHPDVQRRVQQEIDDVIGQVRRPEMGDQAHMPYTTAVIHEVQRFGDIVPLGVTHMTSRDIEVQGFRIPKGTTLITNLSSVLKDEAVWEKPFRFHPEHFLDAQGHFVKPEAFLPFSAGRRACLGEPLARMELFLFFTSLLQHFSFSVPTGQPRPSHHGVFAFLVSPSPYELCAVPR
T1 sequence (P11940 whole entry): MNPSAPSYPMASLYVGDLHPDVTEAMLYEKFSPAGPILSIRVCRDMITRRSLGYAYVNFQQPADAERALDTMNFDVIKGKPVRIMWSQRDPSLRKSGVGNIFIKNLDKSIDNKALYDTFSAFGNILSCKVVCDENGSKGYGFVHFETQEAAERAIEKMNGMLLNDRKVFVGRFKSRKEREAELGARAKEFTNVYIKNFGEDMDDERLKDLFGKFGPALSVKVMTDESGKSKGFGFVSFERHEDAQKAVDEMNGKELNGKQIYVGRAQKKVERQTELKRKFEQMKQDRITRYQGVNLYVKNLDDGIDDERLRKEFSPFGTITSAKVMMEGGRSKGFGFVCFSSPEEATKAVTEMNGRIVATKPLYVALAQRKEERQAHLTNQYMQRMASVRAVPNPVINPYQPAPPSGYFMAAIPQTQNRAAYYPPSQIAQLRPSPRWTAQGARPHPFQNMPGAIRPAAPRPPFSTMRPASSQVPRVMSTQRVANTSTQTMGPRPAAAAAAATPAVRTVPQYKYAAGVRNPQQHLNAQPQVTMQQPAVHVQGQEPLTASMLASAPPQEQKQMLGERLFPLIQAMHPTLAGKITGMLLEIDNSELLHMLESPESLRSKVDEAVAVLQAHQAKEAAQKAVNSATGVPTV
Chain of Cytochrome P450 3A4 (P08684 whole entry): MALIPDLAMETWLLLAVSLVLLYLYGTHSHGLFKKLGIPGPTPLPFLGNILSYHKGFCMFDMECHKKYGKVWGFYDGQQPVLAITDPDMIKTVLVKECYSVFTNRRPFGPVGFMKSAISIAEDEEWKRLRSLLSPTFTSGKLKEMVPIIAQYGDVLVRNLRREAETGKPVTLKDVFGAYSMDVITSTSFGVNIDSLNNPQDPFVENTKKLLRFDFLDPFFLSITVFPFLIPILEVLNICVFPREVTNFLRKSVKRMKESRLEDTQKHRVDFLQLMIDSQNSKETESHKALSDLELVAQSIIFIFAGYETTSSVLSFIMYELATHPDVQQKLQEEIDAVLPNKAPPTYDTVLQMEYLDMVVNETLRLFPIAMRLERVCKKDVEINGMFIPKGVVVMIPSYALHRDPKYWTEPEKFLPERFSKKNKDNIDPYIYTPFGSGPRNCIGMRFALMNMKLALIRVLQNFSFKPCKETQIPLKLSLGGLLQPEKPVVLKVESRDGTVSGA
Chain of Cytochrome P450 2C19 (P33261 whole entry): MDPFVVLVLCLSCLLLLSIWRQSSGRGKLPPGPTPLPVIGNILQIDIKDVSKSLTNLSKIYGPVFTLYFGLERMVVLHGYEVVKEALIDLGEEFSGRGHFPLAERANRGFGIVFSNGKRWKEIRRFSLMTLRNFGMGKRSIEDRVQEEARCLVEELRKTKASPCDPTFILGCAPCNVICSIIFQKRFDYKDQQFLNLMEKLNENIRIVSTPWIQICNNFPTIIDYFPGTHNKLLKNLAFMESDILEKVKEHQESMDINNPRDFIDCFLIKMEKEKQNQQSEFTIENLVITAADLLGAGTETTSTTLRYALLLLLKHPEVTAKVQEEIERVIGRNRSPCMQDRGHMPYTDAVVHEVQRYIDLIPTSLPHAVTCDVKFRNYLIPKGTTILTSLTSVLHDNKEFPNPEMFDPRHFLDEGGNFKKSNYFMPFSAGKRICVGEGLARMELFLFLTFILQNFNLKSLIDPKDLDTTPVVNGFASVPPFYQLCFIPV
Chain of Cytochrome P450 2C9 (P11712 whole entry): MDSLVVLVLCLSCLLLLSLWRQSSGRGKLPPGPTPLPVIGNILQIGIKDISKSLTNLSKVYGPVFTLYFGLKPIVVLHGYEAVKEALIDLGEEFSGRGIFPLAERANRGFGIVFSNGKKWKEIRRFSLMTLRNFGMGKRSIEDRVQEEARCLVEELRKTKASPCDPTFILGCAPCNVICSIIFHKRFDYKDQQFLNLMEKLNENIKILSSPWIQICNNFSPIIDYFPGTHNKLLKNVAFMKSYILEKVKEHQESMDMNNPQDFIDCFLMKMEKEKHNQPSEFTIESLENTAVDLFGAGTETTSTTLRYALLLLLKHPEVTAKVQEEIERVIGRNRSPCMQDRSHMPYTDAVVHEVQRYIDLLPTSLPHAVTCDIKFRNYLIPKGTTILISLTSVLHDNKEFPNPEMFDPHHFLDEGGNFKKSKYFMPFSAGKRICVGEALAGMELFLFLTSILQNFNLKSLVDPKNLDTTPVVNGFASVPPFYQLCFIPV

`Cc1cc(N2CCN(S(=O)(=O)c3ccc(C)c(C)c3)CC2)c2ccccc2n1`: the values for the EC50 in assay [1], in assay [2] and in [3] were > 120 µM (not active), 50 µM (active) and > 120 µM (not active), respectively.

As for `COc1ccc(CNc2ccnc(-c3cccc(C#N)c3)n2)c(OC)c1`, the concentration at half-maximal activity (AC50) (commonly the concentration at which the activity in the assay is half-maximal) at Cytochrome P450 2D6 was 12.6 µM (inconclusive); on Cytochrome P450 2C9, 0.501 µM (inconclusive).

As to `O=C(NCSc1ccccc1)c1ccccc1`, the IC50 in [4] and in assay [5] was > 66 µM (inactive) each time.

Regarding `COC(=O)CNC(=O)C1Nc2ccc(OC(F)(F)F)cc2C2C=CCC12` (stereo not given), the EC50 in assay [6] and in assay [7] was > 300 µM (not active) in each case.

On to `Cc1cccc(NC(=O)NCCN2CCCCC2)c1`, for which the IC50 at Protein skinhead-1 is > 100 µM (inactive).

Regarding `CC(=O)Nc1ccc(S(=O)(=O)Nc2nnc(CC(C)(C)C)s2)cc1`, the IC50 in assay [4] and in assay [5] was > 66 µM (inactive) each time.

Regarding `Cc1n[nH]c(O)c1N=Nc1ccc(S(N)(=O)=O)cc1`, the EC50 (in general, the concentration that produces a half-maximal response) in assay [6] was 78.9 µM (active); in assay [7], 9.43 µM (inconclusive).

Turning to `CC1(C)Cc2c(cnn2-c2cccc(F)c2)C(NC(=O)CSc2ccccn2)C1` (stereo not given), the EC50 in assay [6] was > 300 µM (not active); in [7], > 150 µM (not active).

As to `Cc1onc(-c2ccccc2Cl)c1C(=O)NCCn1ccc2ccccc21`, the IC50 at Protein skinhead-1 is > 100 µM (inactive).

As to `O=C(Nc1ccc(Cl)cn1)c1cc2c(s1)-c1ccccc1OC2`, the IC50 on Protein skinhead-1 is > 100 µM (inactive).

Regarding `CCc1ccc(Nc2ncccc2C#N)cc1`, the figures for the AC50 on Cytochrome P450 2D6 and on Cytochrome P450 3A4 were 20 µM (inconclusive) and 28.2 µM (inconclusive), respectively.

Consider `COCCNC(=O)C1Nc2ccc(C(F)(F)F)cc2C2C=CCC12` (stereo not given), for which the EC50 in assay [6] and in assay [7] was > 300 µM (not active) in each case.

Regarding `S=C(Nc1ccc2nc(-c3ccccn3)c(-c3ccccn3)nc2c1)N1CCOCC1`, the IC50 was > 66 µM (inactive) in assay [4] and 40.3 µM (inactive) in assay [5].

Take `O=C(c1csnn1)N1CCC2(CC1)CCN(c1ccccc1)CC2`: the values for the AC50 at Cytochrome P450 2D6 and at Cytochrome P450 1A2 were 7.94 µM (inconclusive) and 15.8 µM (inconclusive), respectively.

With `CSc1ccc(-c2cc(=O)c3ccccc3o2)cc1`, the CC50 (as a rule, the concentration at which the toxic effect on the cells reaches its halfway point) in assay [8] is 18.7 µM (active). Further, the IC50 at Protein skinhead-1 was 23.9 µM (active).

Take `O=C(CSc1ncnc2scc(-c3ccc(Cl)cc3)c12)NCc1ccc2c(c1)OCO2`: on Protein skinhead-1, the IC50 is > 100 µM (inactive).

For `COc1ncnc2c1N=C1CC(C)(C)CC(NCCC(=O)O)=C1S2`, the results for the EC50 in [6] and in assay [7] were > 300 µM (not active) and 13.8 µM (active), respectively.

Consider `CC(C)OC(=O)c1nn2c(C(F)(F)F)cc(-c3ccc(Br)o3)nc2c1Br`, for which the EC50 in [6] and in assay [7] was > 300 µM (not active) in each case.

In the case of `O=C(Nc1ccc(Cl)cn1)c1ccccc1F`, the IC50 at Protein skinhead-1 was 16.3 µM (active).

Take `FC(F)(F)c1cc(CN2CCC3(CCNCC3)CC2)cc(C(F)(F)F)c1`: the AC50 was 25.1 µM (inconclusive) on Cytochrome P450 2D6 and 31.6 µM (inconclusive) at Cytochrome P450 3A4.

`COc1ccc(NC(=O)Nc2sc(NS(=O)(=O)c3ccccc3)nc2C)cc1`: the IC50 in assay [4] and in assay [5] was > 66 µM (inactive) throughout.

Regarding `N=c1nc(SCCC(=O)O)ss1`, the EC50 in assay [1] was 13.4 µM (active); in [2], 15.8 µM (active); in [3] it was 14 µM (active).

With `FC(F)(F)c1cc(Oc2ccccc2Cl)nc(-c2ccccn2)n1`, the EC50 was 7.86 µM (active) in [1], > 120 µM (not active) in [2] and 6.37 µM (active) in assay [3].

As to `Cc1cccc(N=Nc2c(O)[nH]c3ccc(Br)cc23)c1`, the EC50 in assay [6] is 68.3 µM (active); in [7], 26.9 µM (inconclusive).

Take `O=C(NCCc1ccccn1)c1ccc(S(=O)(=O)N2CCCCCC2)cc1`: at Protein skinhead-1, the IC50 was > 100 µM (inactive).

`CC(=O)c1cccc(NC(=S)NC(=O)c2ccccc2Br)c1`: the IC50 in assay [4] and in assay [5] was > 66 µM (inactive) throughout.

Consider `CCc1c(O)nc(SCc2nc(O)c3ccccc3n2)nc1O`, for which the IC50 in assay [4] and in assay [5] was > 66 µM (inactive) throughout.

For the compound `Cc1ccc(Nc2ccc([N+](=O)[O-])ccc2=O)cc1`, the EC50 in [6] and in [7] was > 300 µM (not active) each time.

On to `Brc1ccc(-c2nnc(-c3cccnc3)o2)cc1`, for which, on Protein skinhead-1, the IC50 was 25.1 µM (active).

Regarding `Cc1ccc2nc(-c3cccnc3)c(NC3CCCCC3)n2c1`, the IC50 is 41.4 µM (inactive) in [4] and 34.7 µM (inactive) in assay [5].

Turning to `CCC(=O)/C=C1/Sc2ccc(OC)cc2N1CCO`, the IC50 in [4] and in [5] was > 66 µM (inactive) throughout.

Consider `O=C(NCc1ccc(Cl)cc1)c1ccc(-c2ccc(F)c(F)c2)c2ccoc12`, for which the IC50 on Protein skinhead-1 was > 100 µM (inactive).

Consider `FC(F)(F)C(F)(F)C(F)(F)c1nc2nc(Cl)c(Cl)[nH]c-2n1`, for which the IC50 in [4] and in assay [5] was > 66 µM (inactive) throughout.

For the compound `N#CC(=Cc1cccs1)c1nc(-c2ccc(Cl)cc2)cs1`, the IC50 on Protein skinhead-1 is > 100 µM (inactive).

For the compound `Cc1nnc(O)nc1N/N=C/c1ccc(O)c([N+](=O)[O-])c1`, the 50% effective concentration (EC50) in [6] was 169 µM (active); in assay [7], 65.5 µM (active).

Turning to `C/C(=N/OC(=O)c1cccc(Cl)c1)c1nccs1`, the AC50 was 20 µM (inconclusive) on Cytochrome P450 2C19, 35.5 µM (inconclusive) on Cytochrome P450 2D6 and 31.6 µM (inconclusive) on Cytochrome P450 1A2.

For the compound `COC1=C(OC)C(=O)c2ccccc2C1=O`, the AC50 is 31.6 µM (inconclusive) at Cytochrome P450 2C19, 39.8 µM (inconclusive) on Cytochrome P450 2D6 and 39.8 µM (inconclusive) at Cytochrome P450 2C9.
